# pIC50: −log10 of the molar value.
# Columns and labels:
# [1] = target: T1, calf intestinal musosa adenosine deaminase (Bos taurus, UniProt P56658); test: Adenosine deaminase activity; format: biochemical; conditions: 80 μM adenosine, 10 minutes at 37° C.
# T1 construct: 0.002 units of calf intestinal musosa adenosine deaminase; from tissue; host or cells: calf intestinal mucosa
# Procedure: Different concentrations of the test compounds were incubated in the assay mixture for 10 minutes at 37° C. The reaction was monitored continuously for oxidation of NADH from the change in absorbance at 340 nm.
# [2] = target: T2, purified pig heart adenosine kinase (Sus scrofa, UniProt A0A5G2R0F5); test: Adenosine kinase activity; format: biochemical; conditions: 0.5 μM [U14C] adenosine, 1 mM ATP, 20 minutes at 37° C.
# T2 construct: 0.1 μg of purified pig heart adenosine kinase; from tissue; host or cells: pig heart
# Procedure: Inhibition of enzyme activity was determined using a 0.1 ml assay mixture containing 50 mM Tris-maleate, pH 7.0, 0.1% (w/v) BSA, 1 mM ATP, 1 mM MgCl2, 0.5 μM [U^14 C] adenosine (500 mCi/mmol) and 0.1 μg of purified pig heart adenosine kinase. Different concentrations of test compound were incubated in the assay mixture for 20 minutes at 37° C. From each reaction mixture, 20 μl portions were removed and spotted on 2^2 pieces of Whatman DE81 filter paper. The papers were then washed to remove [^14 C] adenosine in 1 mM ammonium formate followed by deionized water and finally 95% ethanol. The papers were dried, and [^14C] AMP measured by scintillation counting. Activities were determined from the amount of [^14C] AMP formed.
# [3] = system: HPRT+ neuroblastoma cells; test: Adenosine excretion by stimulated HPRT+ neuroblastoma cells; format: cell-based; conditions: 50 μM AICA riboside, calcium ionophore A23187, 1.0 μM deoxycoformycin
# Procedure: To induce ATP catabolism, the growth medium was replaced by medium containing micromolar amounts of the calcium ionophore A23187 and 1.0 μM deoxycoformycin.
# [4] = system: patients undergoing CABG surgery; test: Phase 2 CABG trial: myocardial ischemia by Holter ECG and TEE; format: in vivo, human; conditions: for Isch min/h monitored: postbypass, listed as AICA riboside
# Procedure: The evaluation of Holter tapes and echo videotapes was performed centrally by two independent blinded observers; if there was disagreement between the two, a third observer was used to “break the tie.” The same observers were used throughout the study. 5. Ischemic Events-TEE. Ischemic event data were evaluated during two time periods-pre-bypass and post-bypass, using the following analysis: a) The number of patients with ischemic events was compared across the groups using Fisher's exact test. This analysis also included pre-post changes and pre- and post-combined. b) For patients with events, analysis of the mean duration and severity of ischemia was done. […] For severity (an ordinary variable, 0-4 scale) and number of events, the nonparametric test was used. […] 6. Ischemic Events-ECG. The analysis of ischemic events indicated by ECG was done using the same methods as the echo events. The time periods analyzed were: (a) baseline (Holter start to infusion start), (b) pre-bypass (infusion start to bypass start), (c) post-bypass ([…] off to infusion end), and (d) post-treatment (infusion end to Holter end). For patients with events, the following variables were analyzed: mean duration, maximum ST change and area under the curve of significant ST segment deviation. Analysis of variance (ANOVA) was used. 3. Myocardial Ischemia. Myocardial ischemia was measured with continuous Holter ECG and TEE. […] ECG episodes of ischemia were defined as reversible S-T depression 1 mm or greater lasting 1 minute or longer. TEE data were recorded continuously during surgery at the level of the mid-papillary muscles of the left ventricle. The wall motion of each of the four segments was graded from 0-4 (normal to […] ischemia was defined by regional wall motion worsening at least 2 grades and lasting 1 minute or longer.
# [5] = system: patients undergoing CABG surgery; test: Phase 2 CABG trial: difficulty in weaning from bypass; format: in vivo, human; conditions: for WEANING TIME: Pts without Difficulty
# Procedure: During surgery, anesthesia was maintained by continuous infusion of fentanyl and midazolam. Routine clinical parameters were recorded using standard operating room monitoring equipment. Continuous 2-lead Holter ECG and TEE data were recorded. Standard surgical procedures (e.g., aorta cross-clamping, crystalloid cardioplegia, cardiopulmonary bypass, hypothermia) were used. Anastomoses were constructed, aorta cross-clamp removed and patients were discontinued from bypass when body temperature was 37° C. The quality of anastomosis was judged by the surgeon. Difficulty in weaning from bypass was judged by need for one or more of the following: pacemaker, return to bypass, balloon pump or vasopressor administration. Hemodynamic measurements, including heart rate, arterial blood pressure, pulmonary capillary wedge pressure and cardiac output, were recorded before stemotomy, 15 and 30 min after bypass and upon chest closure. Radial artery and pulmonary artery pressures, myocardial and whole body temperature, O2 saturation, end-tidal CO2 and arterial blood gases were measured, and ECG recordings were obtained as clinically indicated. Hemodynamic variables (blood pressure, heart rate, pulmonary capillary wedge pressure) were controlled within 20% of baseline using prescribed regimens.
# The incidence of adverse clinical outcomes, such as cardiac death (death of patient attributable to primarily cardiac causes, non-fatal transmural MI (as measured by the appearance of a new Q-wave on 12-lead ECG plus a CK-MB value of ≧50 units), non-transmural MI (CK-MB value of ≧50 units), congestive heart failure (low cardiac output requiring intra-aortic balloon pump or left ventricular assist device) or life-threatening dysrhythmia (ventricular fibrillation, or ventricular tachycardia requiring cardioversion or drug treatment) was compared between the placebo and treatment groups. For the diagnosis of myocardial infarction, ECG tracings and CK-MB values were assessed centrally by observers blinded to treatment. The difficulty of weaning the patient from bypass, if any, was compared between placebo and treatment groups by noting need for one or more of the following: pacemaker, return to bypass, balloon pump or use of vasopressors.
# 8. Difficulty in Weaning. Patients were considered to have difficulty in weaning if they needed one or more of the following interventions: pacemaker, return to bypass, balloon pump or use of vasopressors. The number of patients receiving each of the above interventions was analyzed using a X^2 and Fisher's exact test, as was the number of patients classified as having difficulty in weaning. In addition, the time to weaning (defined as time from cross-clamp removal to end of bypass) in the patients experiencing difficulty were compared by a 1-way analysis of variance.
# As noted, patients were determined as being difficult to remove from cardiopulmonary bypass if they required one or more of the following interventions: insertion of a pacemaker, return to bypass, use of a balloon pump or administration of vasopressors, or another intervention which the investigation determines is indicative of difficulty in weaning. […] When a combination of the high and low dose groups were compared to placebo (Table 9b), the reduced need for vasopressor support approached statistical significance (p=0.08). […] There were no differences in any of the weaning difficulty parameters discussed above between the high and low dose groups (Table 9c).
# [6] = system: pentylene tetrazol-induced seizures; test: Suppression of pentylene tetrazol-induced seizures; format: in vivo, rat; conditions: 2000 mg/kg (total dose) intraperitoneal
# T2 sequence (A0A5G2R0F5 1-362): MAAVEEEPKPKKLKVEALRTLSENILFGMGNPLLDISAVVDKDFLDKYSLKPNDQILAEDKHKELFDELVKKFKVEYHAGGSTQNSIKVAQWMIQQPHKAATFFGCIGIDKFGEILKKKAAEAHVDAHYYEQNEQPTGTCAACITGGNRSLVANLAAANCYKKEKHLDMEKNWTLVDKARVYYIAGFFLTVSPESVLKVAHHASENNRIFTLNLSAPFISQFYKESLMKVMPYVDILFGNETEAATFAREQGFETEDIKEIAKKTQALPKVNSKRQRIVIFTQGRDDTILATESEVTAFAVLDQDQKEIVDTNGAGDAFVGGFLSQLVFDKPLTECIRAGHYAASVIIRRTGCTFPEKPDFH
# T1 sequence (P56658 whole entry): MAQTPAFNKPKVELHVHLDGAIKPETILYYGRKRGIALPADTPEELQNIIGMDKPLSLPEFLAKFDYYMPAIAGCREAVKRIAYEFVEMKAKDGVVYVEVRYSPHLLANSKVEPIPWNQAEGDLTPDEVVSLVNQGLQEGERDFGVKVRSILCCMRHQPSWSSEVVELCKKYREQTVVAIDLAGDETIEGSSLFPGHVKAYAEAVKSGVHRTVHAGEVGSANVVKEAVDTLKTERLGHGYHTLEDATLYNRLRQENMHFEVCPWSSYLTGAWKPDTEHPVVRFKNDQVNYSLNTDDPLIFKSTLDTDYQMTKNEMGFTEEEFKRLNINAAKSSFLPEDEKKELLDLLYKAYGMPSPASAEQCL
compound,measurement,setting,value
"NC(=O)c1ncn([C@@H]2O[C@H](CO)[C@@H](O)[C@H]2O)c1N [1 (1-110), 5-amino-1-β-D-ribofuranosyl-imidazole-4-carboxamide]",pIC50,[1],< 2.30
same,pIC50,[2],< 2.30
same,adenosine secreted vs control cells,[3],at least twofold more adenosine than control cells
same,Isch min/h monitored,[4]; High Dose,27±20 min/h
same,Isch min/h monitored,[4]; Low Dose,40±15 min/h
same,"incidence of ECG ischemia, postbypass period",[4]; high dose,11%
same,"incidence of ECG ischemia, prebypass period",[4]; high dose,3%
same,"incidence of TEE ischemia, postbypass period",[4]; high dose,24%
same,"incidence of TEE ischemia, prebypass period",[4]; high dose,6%
same,"incidence of ECG ischemia, postbypass period",[4]; low dose,22%
same,"incidence of ECG ischemia, prebypass period",[4]; low dose,3%
same,"incidence of TEE ischemia, postbypass period",[4]; low dose,27%
same,"incidence of TEE ischemia, prebypass period",[4]; low dose,15%
same,WEANING TIME,[5]; 0.05 mg/kg/min,20.4 +/− 2.5
same,WEANING TIME,[5]; 0.1 mg/kg/min,16.3 +/− 1.9
same,PATIENTS WITH ANY DIFFICULTY WEANING,"[5]; 0.05 + 0.10, 76 patients",15 (19.7%)
same,PATIENTS WITH ANY DIFFICULTY WEANING,"[5]; 0.05, 41 patients",7 (17%)
same,PATIENTS WITH ANY DIFFICULTY WEANING,"[5]; 0.10, 35 patients",8 (23%)
same,latency to seizure,[6],dramatic prolongation of latency to seizure

# From patent US8993527B2, “Methods, compositions, and formulations for preventing or reducing adverse effects in a patient” (Pericor Therapeutics, Inc., priority 2005, dated 2015)
